The test system of one data set is Enterococcus faecalis. In words: Antibacterial activity against Enterococcus faecalis ATCC 29212. The format is functional.
A further data set has as its system Haemophilus influenzae. Nature of the data set: Antibacterial activity against Haemophilus influenzae ATCC 49247. The data set is classed as functional.
Data set [1] relates to Staphylococcus aureus. Nature of the data set: Antibacterial activity against Staphylococcus aureus Smith. The format is functional.
The test system of a further data set is Streptococcus pneumoniae. Nature of the data set: Antibacterial activity against Streptococcus pneumoniae IID554. The format is functional.
The next data set has as its system Moraxella catarrhalis. Nature of the data set: Antibacterial activity against Moraxella catarrhalis ATCC 25238. The format is functional.
In the next data set the test system is Escherichia coli. Nature of the data set: Antibacterial activity against Escherichia coli ATCC 25922. The data set is classed as functional.
In the next data set the test system is Enterococcus faecium. In words: Antibacterial activity against VanA-type vancomycin-resistant Enterococcus faecium A2373. The format is functional.
The subject of another data set is Acinetobacter baumannii. Nature of the data set: Antibacterial activity against Acinetobacter baumannii IID876. The format is functional.
Another data set has as its system Pseudomonas aeruginosa. Nature of the data set: Antibacterial activity against Pseudomonas aeruginosa PAO1. The format is functional.
Data set [2] has as its system Staphylococcus aureus. In words: Ratio of MIC for quinolone-resistant Staphylococcus aureus MS5935 to MIC for quinolone-sensitive Staphylococcus aureus. The data set is classed as functional.
Data set [3] concerns the target T1, Voltage-gated inwardly rectifying potassium channel KCNH2 (Homo sapiens, UniProt Q12809). Nature of the data set: Inhibition of human ERG expressed in CHO cells measured over 5 mins by patch clamp assay. Background: The patch-clamp technique gives a direct electrical read-out from membranes.
In data set [4] the target is T1, Voltage-gated inwardly rectifying potassium channel KCNH2. In words: Displacement of MK499 from human ERG.
For data set [5], the system named is Staphylococcus aureus. Nature of the data set: Antibacterial activity against Staphylococcus aureus Smith infected in iv dosed CD1 mouse administered at 0.5 hrs post infection. The format is functional.
Data set [6] is described as follows: Volume of distribution at steady state in C57BL/6 mouse at 1 mg/kg, iv and 2 mg/kg, po. The data set is classed as ADME, organism-based. To be noted: in vivo, read-out: Vdss.
Data set [7] can be described thus: Oral bioavailability in C57BL/6 mouse at 2 mg/kg. The format is ADME, organism-based. The conditions noted are these: in vivo.
The test system of a further data set is Mus musculus. In words: Dose normalized AUC in C57BL/6 mouse at 1 mg/kg, iv and 2 mg/kg, po. The format is ADME, organism-based. To be noted: in vivo.
The nature of data set [8]: Plasma clearance in C57BL/6 mouse at 1 mg/kg, iv and 2 mg/kg, po. The format is ADME, organism-based.
Data set [9] relates to Staphylococcus aureus. Nature of the data set: Antibacterial activity against Staphylococcus aureus Smith infected in po dosed CD1 mouse administered at 0.5 hrs post infection. The format is functional.
Data set [10] in a line: Half life in C57BL/6 mouse at 1 mg/kg, iv and 2 mg/kg, po. The data set is classed as ADME, organism-based. The conditions noted are these: in vivo.
Setting [11] is: Enterococcus faecalis, ATCC 29212, read-out: MIC.
Setting [12] is: Haemophilus influenzae, ATCC 49247, read-out: MIC.
[13] abbreviates: Staphylococcus aureus, Smith, read-out: MIC.
The mark [14] stands for this setting: Streptococcus pneumoniae, IID554, read-out: MIC.
The mark [15] stands for this setting: Moraxella catarrhalis, ATCC 25238, read-out: MIC.
[16] abbreviates: Escherichia coli, ATCC 25922, read-out: MIC.
[17] abbreviates: Enterococcus faecium, A2373, read-out: MIC.
The mark [18] stands for this setting: Acinetobacter baumannii, IID876, read-out: MIC.
Where [19] appears, read: Pseudomonas aeruginosa, PAO1, read-out: MIC.

In brackets after ≈: the same amount, converted by molar mass.

Experimental findings from ChEMBL document CHEMBL3425423, “Hydroxy tricyclic 1,5-naphthyridinone oxabicyclooctane-linked novel bacterial topoisomerase inhibitors as broad-spectrum antibacterial agents-SAR of RHS moiety (Part-3)” (Bioorg Med Chem Lett, 2015) are described below.

Broadly, the IC50 is the concentration that gives 50% inhibition. Low readings indicate greater potency, high ones weaker potency. Broadly, the bioavailability is dose-corrected exposure relative to a reference, in per cent. Lower therefore signals poor availability. As a reminder, the half-life is how long it takes for the measured level to halve. Lower therefore signals fast loss.

T1 sequence (Q12809 whole entry): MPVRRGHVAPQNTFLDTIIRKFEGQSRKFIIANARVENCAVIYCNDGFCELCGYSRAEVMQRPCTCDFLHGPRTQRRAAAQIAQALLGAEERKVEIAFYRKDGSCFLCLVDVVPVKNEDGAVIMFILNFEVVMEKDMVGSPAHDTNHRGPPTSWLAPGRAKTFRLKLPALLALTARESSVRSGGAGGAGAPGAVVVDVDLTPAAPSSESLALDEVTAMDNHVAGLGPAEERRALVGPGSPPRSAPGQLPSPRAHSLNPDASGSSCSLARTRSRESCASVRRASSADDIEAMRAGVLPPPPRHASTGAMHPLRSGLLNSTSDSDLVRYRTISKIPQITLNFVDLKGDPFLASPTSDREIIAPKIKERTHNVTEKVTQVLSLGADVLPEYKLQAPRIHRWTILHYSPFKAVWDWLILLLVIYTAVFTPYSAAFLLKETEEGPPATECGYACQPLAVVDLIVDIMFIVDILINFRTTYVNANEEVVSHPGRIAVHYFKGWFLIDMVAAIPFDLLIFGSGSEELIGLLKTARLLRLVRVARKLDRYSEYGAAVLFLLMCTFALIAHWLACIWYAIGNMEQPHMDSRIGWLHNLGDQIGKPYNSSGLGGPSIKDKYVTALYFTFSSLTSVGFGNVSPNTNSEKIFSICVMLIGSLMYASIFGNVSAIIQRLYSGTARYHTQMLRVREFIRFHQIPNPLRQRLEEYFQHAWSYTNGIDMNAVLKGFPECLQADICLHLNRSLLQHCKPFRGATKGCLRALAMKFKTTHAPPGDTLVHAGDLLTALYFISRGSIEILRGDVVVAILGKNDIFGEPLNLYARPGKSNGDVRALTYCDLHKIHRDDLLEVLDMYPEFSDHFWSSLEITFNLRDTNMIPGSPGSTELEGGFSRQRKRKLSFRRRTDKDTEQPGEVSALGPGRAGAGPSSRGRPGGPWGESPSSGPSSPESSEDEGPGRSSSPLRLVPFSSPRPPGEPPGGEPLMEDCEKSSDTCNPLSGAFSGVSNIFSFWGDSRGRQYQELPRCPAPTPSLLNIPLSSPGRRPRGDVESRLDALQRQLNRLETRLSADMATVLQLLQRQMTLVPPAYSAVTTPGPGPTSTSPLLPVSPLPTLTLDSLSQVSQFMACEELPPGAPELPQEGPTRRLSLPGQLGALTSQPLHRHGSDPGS

For `Nc1cc2c(nc1CNC13CCC(C[C@]4(O)Cn5c(=O)ccc6ncc(F)c4c65)(CC1)OC3)NC(=O)CO2`, the MIC was 32 µg/mL (≈ 61.2 µM) with Enterococcus faecalis (setting [11]); 32 µg/mL (≈ 61.2 µM) in the data set with Haemophilus influenzae (setting [12]); 8 µg/mL (≈ 15.3 µM) with Staphylococcus aureus [1] (setting [13]); 32 µg/mL (≈ 61.2 µM) in the data set on Streptococcus pneumoniae (setting [14]); 4 µg/mL (≈ 7.65 µM) with Moraxella catarrhalis (setting [15]); 32 µg/mL (≈ 61.2 µM) with Escherichia coli (setting [16]). The MIC in the data set on Enterococcus faecium (setting [17]), in the data set with Acinetobacter baumannii (setting [18]) and with Pseudomonas aeruginosa (setting [19]) was 32 µg/mL (≈ 61.2 µM) each time. For the same molecule, the Ratio in the data set with Staphylococcus aureus [2] is given as <4.
As for `CC1COc2cc(CNC34CCC(C[C@]5(O)Cn6c(=O)ccc7ncc(F)c5c76)(CC3)OC4)ncc2O1` (stereo in doubt; 20), the IC50 in data set [3] and in [4] was > 60 µM each time. Moreover, the MIC against Enterococcus faecalis came to 8 µg/mL (≈ 15.7 µM); in the data set on Haemophilus influenzae, 16 µg/mL (≈ 31.5 µM); with Staphylococcus aureus [1] (setting [13]), 1 µg/mL (≈ 1.97 µM); in the data set on Streptococcus pneumoniae (setting [14]) it was 2 µg/mL (≈ 3.93 µM); with Moraxella catarrhalis, 2 µg/mL (≈ 3.93 µM); against Escherichia coli it was 32 µg/mL (≈ 62.9 µM). Also, the MIC came to 32 µg/mL (≈ 62.9 µM) in the data set with Enterococcus faecium, 16 µg/mL (≈ 31.5 µM) in the data set on Acinetobacter baumannii and 32 µg/mL (≈ 62.9 µM) in the data set on Pseudomonas aeruginosa.
For `O=C1COc2cnc(CNC34CCC(C[C@]5(O)Cn6c(=O)ccc7ncc(F)c5c76)(CC3)OC4)nc2N1`, the half-inhibitory concentration (IC50) in data set [3] amounted to 30 µM. The MIC in the data set with Enterococcus faecalis (setting [11]) is 4 µg/mL (≈ 7.87 µM); in the data set with Staphylococcus aureus [1] (setting [13]) it was 0.5 µg/mL (≈ 0.983 µM); with Streptococcus pneumoniae (setting [14]), 2 µg/mL (≈ 3.93 µM); with Escherichia coli (setting [16]), 8 µg/mL (≈ 15.7 µM); with Enterococcus faecium (setting [17]), 16 µg/mL (≈ 31.5 µM); with Acinetobacter baumannii (setting [18]) it was 32 µg/mL (≈ 62.9 µM). In addition, the MIC in the data set on Pseudomonas aeruginosa (setting [19]) is 16 µg/mL (≈ 31.5 µM). Further, in the data set with Staphylococcus aureus [2], the Ratio is recorded as <4.
Turning to `CC1COc2cc(CNC34CCC(C[C@]5(O)Cn6c(=O)ccc7ncc(F)c5c76)(CC3)OC4)ncc2O1` (stereo in doubt; 19), the MIC was 16 µg/mL (≈ 31.5 µM) in the data set with Enterococcus faecalis (setting [11]); 32 µg/mL (≈ 62.9 µM) with Haemophilus influenzae (setting [12]); 2 µg/mL (≈ 3.93 µM) in the data set on Staphylococcus aureus [1]; 4 µg/mL (≈ 7.87 µM) against Streptococcus pneumoniae; 4 µg/mL (≈ 7.87 µM) in the data set on Moraxella catarrhalis (setting [15]); 32 µg/mL (≈ 62.9 µM) with Escherichia coli (setting [16]). Moreover, the MIC in the data set on Enterococcus faecium (setting [17]) came out at 32 µg/mL (≈ 62.9 µM); in the data set with Acinetobacter baumannii (setting [18]) it was 16 µg/mL (≈ 31.5 µM); with Pseudomonas aeruginosa (setting [19]), 32 µg/mL (≈ 62.9 µM). In the data set on Staphylococcus aureus [2], the Ratio was <4.
With `O=c1ccc2ncc(F)c3c2n1C[C@@]3(O)CC12CCC(NCc3ccc4c(n3)NCCN4)(CC1)CO2`, the IC50 in [3] and in data set [4] was > 60 µM in each case. The MIC in the data set on Enterococcus faecalis (setting [11]) was 32 µg/mL (≈ 65 µM); in the data set with Staphylococcus aureus [1] (setting [13]) it was 8 µg/mL (≈ 16.2 µM); with Streptococcus pneumoniae (setting [14]) it was 16 µg/mL (≈ 32.5 µM); with Moraxella catarrhalis (setting [15]), 32 µg/mL (≈ 65 µM); with Escherichia coli (setting [16]), 32 µg/mL (≈ 65 µM); in the data set on Enterococcus faecium (setting [17]) it was 32 µg/mL (≈ 65 µM). The MIC in the data set with Acinetobacter baumannii (setting [18]) and with Pseudomonas aeruginosa (setting [19]) was 32 µg/mL (≈ 65 µM) in each case. For the same molecule, the Ratio with Staphylococcus aureus [2] is <4.
On to `O=c1ccc2ncc(F)c3c2n1C[C@@]3(O)CC12CCC(NCc3cc4c(cn3)S(=O)(=O)CCO4)(CC1)CO2`, for which the IC50 in data set [3] and in data set [4] was > 60 µM in each case. Moreover, the MIC with Enterococcus faecalis (setting [11]) stood at 32 µg/mL (≈ 59 µM); in the data set on Haemophilus influenzae (setting [12]), 32 µg/mL (≈ 59 µM); with Staphylococcus aureus [1] (setting [13]), 8 µg/mL (≈ 14.7 µM); in the data set with Streptococcus pneumoniae (setting [14]), 32 µg/mL (≈ 59 µM); in the data set with Moraxella catarrhalis (setting [15]), 32 µg/mL (≈ 59 µM); in the data set on Escherichia coli (setting [16]), 32 µg/mL (≈ 59 µM). Also, the MIC with Enterococcus faecium (setting [17]), in the data set with Acinetobacter baumannii (setting [18]) and with Pseudomonas aeruginosa (setting [19]) was 32 µg/mL (≈ 59 µM) throughout. Further, the Ratio in the data set on Staphylococcus aureus [2] was <4.
For `O=C1COc2cc(Cl)c(CNC34CCC(C[C@]5(O)Cn6c(=O)ccc7ncc(F)c5c76)(CC3)OC4)nc2N1`, the IC50 is 126 µM in data set [3] and 27.7 µM in data set [4]. For the same molecule, the MIC came to 8 µg/mL (≈ 14.8 µM) in the data set on Enterococcus faecalis (setting [11]); 0.25 µg/mL (≈ 0.461 µM) with Staphylococcus aureus [1] (setting [13]); 2 µg/mL (≈ 3.69 µM) in the data set with Streptococcus pneumoniae (setting [14]); 8 µg/mL (≈ 14.8 µM) in the data set with Escherichia coli (setting [16]); 16 µg/mL (≈ 29.5 µM) with Enterococcus faecium (setting [17]); 2 µg/mL (≈ 3.69 µM) in the data set on Acinetobacter baumannii (setting [18]). Further, the MIC in the data set on Pseudomonas aeruginosa (setting [19]) was found to be 16 µg/mL (≈ 29.5 µM). Further, the ED90 with Staphylococcus aureus [5] worked out at 24 mg/kg; in the data set with Staphylococcus aureus [9], 29 mg/kg. Moreover, in [6], the Vd amounted to 7 L/kg. Also, in [7], the bioavailability was determined as 51%. Also, the AUC/dose in the data set on Mus musculus is 0.7 µM·h/mg/kg. Further, the Ratio with Staphylococcus aureus [2] is <4. Further, the clearance in data set [8] came to 38 mL/min/kg. This molecule gave a half-life in [10] of 3.5 h.
For `O=C1COc2cc(O)c(CNC34CCC(C[C@]5(O)Cn6c(=O)ccc7ncc(F)c5c76)(CC3)OC4)nc2N1`, the MIC in the data set with Enterococcus faecalis (setting [11]) is 8 µg/mL (≈ 15.3 µM); in the data set on Haemophilus influenzae (setting [12]) it was 4 µg/mL (≈ 7.64 µM); with Staphylococcus aureus [1] (setting [13]), 2 µg/mL (≈ 3.82 µM); in the data set on Streptococcus pneumoniae (setting [14]), 2 µg/mL (≈ 3.82 µM); with Moraxella catarrhalis (setting [15]), 1 µg/mL (≈ 1.91 µM); with Escherichia coli (setting [16]) it was 16 µg/mL (≈ 30.6 µM). Besides, the MIC with Enterococcus faecium (setting [17]) amounted to 16 µg/mL (≈ 30.6 µM); with Acinetobacter baumannii (setting [18]), 32 µg/mL (≈ 61.1 µM); in the data set with Pseudomonas aeruginosa (setting [19]), 16 µg/mL (≈ 30.6 µM). In addition, the Ratio in the data set on Staphylococcus aureus [2] is listed as <4.
